Among the data in EP2970215B1, “PYRROLIDINE DERIVATIVES, PHARMACEUTICAL COMPOSITIONS CONTAINING THEM, AND THEIR USE IN THERAPY” (AbbVie Deutschland GmbH & Co. KG, priority 2013, dated 2014) are Ki values, retold here.

Structures are written as SMILES. Bounds are passed on as bounds.

As a reminder, the Ki is a measure of affinity in units of concentration, obtained from inhibition or displacement.

One experiment concerns the target T1, human GlyT1c transporter (Homo sapiens, UniProt P48067).
T1 construct: expressed in transfected cells; host or cells: CHO cells (recombinant; line hGlyT1c_5_CHO is named for the uptake assay)
T1 sequence (P48067 1-706): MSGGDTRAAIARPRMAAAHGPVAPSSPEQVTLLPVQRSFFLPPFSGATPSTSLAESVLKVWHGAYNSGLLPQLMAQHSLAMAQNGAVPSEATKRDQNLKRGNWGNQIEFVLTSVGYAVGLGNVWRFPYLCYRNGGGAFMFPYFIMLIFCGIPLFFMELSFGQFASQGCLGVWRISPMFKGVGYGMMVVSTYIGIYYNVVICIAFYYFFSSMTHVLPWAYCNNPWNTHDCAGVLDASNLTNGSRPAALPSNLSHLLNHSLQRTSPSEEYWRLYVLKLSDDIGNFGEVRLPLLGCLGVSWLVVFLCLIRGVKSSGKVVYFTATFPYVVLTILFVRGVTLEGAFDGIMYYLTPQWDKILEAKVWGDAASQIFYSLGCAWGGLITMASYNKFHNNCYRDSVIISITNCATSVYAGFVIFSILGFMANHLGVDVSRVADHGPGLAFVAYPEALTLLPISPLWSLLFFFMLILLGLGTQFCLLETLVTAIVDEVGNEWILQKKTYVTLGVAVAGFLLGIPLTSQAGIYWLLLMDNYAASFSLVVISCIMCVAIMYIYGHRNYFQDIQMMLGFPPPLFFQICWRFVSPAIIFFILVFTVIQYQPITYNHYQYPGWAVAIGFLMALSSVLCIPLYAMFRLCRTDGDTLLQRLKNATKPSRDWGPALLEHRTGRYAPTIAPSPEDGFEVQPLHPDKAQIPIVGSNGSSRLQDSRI
The experiment can be described thus: Radioligand binding assay using recombinant CHO cell membranes expressing human GlyT1. The conditions noted are these: radioligand binding to human GlyT1c transporter-expressing membranes. From the text: 2. Radioligand binding assays using recombinant CHO cell membranes expressing human GlyT1: […]
With `Cc1ccccc1C(=O)N[C@@H]1CN(S(=O)(=O)c2cn(C)cn2)C[C@H]1c1ccccc1` (relative stereo) [Example 22, 2-methyl-N-{trans-1-[(1-methyl-1H-imidazol-4-yl)sulfonyl]-4-phenylpyrrolidin-3-yl}benzamide], the Ki was ≤ 10 µM.
Same read-out and setting: to `Cn1cnc(S(=O)(=O)N2C[C@@H](C(=O)c3ccc(F)c(F)c3)[C@H](c3ccc(F)cc3)C2)c1` (relative stereo) [Example 357, (3,4-Difluorophenyl){trans-4-(4-fluorophenyl)-1-[(1-methyl-1H-imidazol-4-yl)sulfonyl]pyrrolidin-3-yl}methanone] belongs ≤ 1 µM.
Same read-out and setting: in the case of `Cn1cnc(S(=O)(=O)N2C[C@@H](Nc3cc(F)cc(Cl)c3)[C@H](c3ccccc3)C2)c1` (relative stereo) [Example 225, trans-N-(3-chloro-5-fluorophenyl)-1-[(1-methyl-1H-imidazol-4-yl)sulfonyl]-4-phenylpyrrolidin-3-amine] it was ≤ 10 µM; in that of `Cn1cnc(S(=O)(=O)N2C[C@@H](Nc3ccc(Cl)cc3)[C@H](c3ccccc3Cl)C2)c1` (relative stereo) [Example 254, trans-4-(2-chlorophenyl)-N-(4-chlorophenyl)-1-[(1-methyl-1H-imidazol-4-yl)sulfonyl]pyrrolidin-3-amine], ≤ 10 µM; in that of `Cc1ccc(N[C@H]2CN(S(=O)(=O)c3cn(C)cn3)C[C@@H]2c2ccc(F)cc2)cc1C(F)(F)F` [Example 638, (3R,4S)-4-(4-fluorophenyl)-1-[(1-methyl-1H-imidazol-4-yl)sulfonyl]-N-[4-methyl-3-(trifluoromethyl)phenyl]pyrrolidin-3-amine], ≤ 1 µM.
Still for that read-out and setting: to `Cn1cnc(S(=O)(=O)N2C[C@H](NCCCCC3OCCC(C)(C)O3)[C@@H](c3ccc(F)cc3)C2)c1` (stereo partly drawn) [Example 684, (3R,4S)-N-[4-(4,4-dimethyl-1,3-dioxan-2-yl)butyl]-4-(4-fluorophenyl)-1-[(1-methyl-1H-imidazol-4-yl)sulfonyl]pyrrolidin-3-amine] belongs ≤ 1 µM.
For the compound `Cn1cnc(S(=O)(=O)N2C[C@@H](Nc3cc(C(F)(F)F)ccn3)[C@H](C3CCCCO3)C2)c1` (relative stereo) [Example 682, N-{Trans-1-[(1-methyl-1H-imidazol-4-yl)sulfonyl]-4-[tetrahydro-2H-pyran-2-yl]pyrrolidin-3-yl}-4-(trifluoromethyl)pyridin-2-amine], the Ki is ≤ 0.1 µM.
Still for that read-out and setting: to `CCCCC(=O)N[C@H]1CN(S(=O)(=O)c2cn(C)cn2)C[C@@H]1c1ccccc1` [Example 549, N-{(3R,4S)-1-[(1-methyl-1H-imidazol-4-yl)sulfonyl]-4-phenylpyrrolidin-3-yl}pentanamide] belongs ≤ 10 µM; to `Cn1cnc(S(=O)(=O)N2C[C@@H](Nc3ccc(Cl)c(F)c3)[C@H](c3ccc(F)cc3)C2)c1` (relative stereo) [Example 162, trans-N-(4-chloro-3-fluorophenyl)-4-(4-fluorophenyl)-1-[(1-methyl-1H-imidazol-4-yl)sulfonyl]pyrrolidin-3-amine], ≤ 1 µM.
Still for that read-out and setting: in the case of `Cn1cnc(S(=O)(=O)N2C[C@H](Nc3ccc4occc4c3)[C@@H](c3ccccc3)C2)c1` [Example 660, (3R,4S)-N-(1-benzofuran-5-yl)-1-[(1-methyl-1H-imidazol-4-yl)sulfonyl]-4-phenylpyrrolidin-3-amine] it was ≤ 1 µM; in that of `Cc1nc(S(=O)(=O)N2C[C@H](Nc3cc(C(F)(F)F)c(Cl)cn3)[C@@H](c3ccc(F)cc3)C2)cn1C` [Example 760, 5-chloro-N-[(3R,4S)-1-[(1,2-dimethyl-1H-imidazol-4-yl)sulfonyl]-4-(4-fluorophenyl)pyrrolidin-3-yl]-4-(trifluoromethyl)pyridin-2-amine], > 10 µM.
The same measure, in the same setting: in the case of `Cn1cnc(S(=O)(=O)N2C[C@H](C(=O)NCc3ccc(C(F)(F)F)cc3Cl)[C@@H](c3ccc(F)cc3)C2)c1` [Example 663, (3R,4S)-N-[2-chloro-4-(trifluoromethyl)benzyl]-4-(4-fluorophenyl)-1-[(1-methyl-1H-imidazol-4-yl)sulfonyl]pyrrolidine-3-carboxamide] it was ≤ 0.1 µM.
For the compound `Cn1cnc(S(=O)(=O)N2C[C@@H](NCc3ccc(C(F)(F)F)cc3Cl)[C@H](C3CCCCO3)C2)c1` (relative stereo) [Example 680, Trans-N-[2-chloro-4-(trifluoromethyl)benzyl]-1-[(1-methyl-1H-imidazol-4-yl)sulfonyl]-4-(tetrahydro-2H-pyran-2-yl)pyrrolidin-3-amine], the Ki is ≤ 0.1 µM.
Still for that read-out and setting: to `Cn1cnc(S(=O)(=O)N2C[C@@H](NC(=O)c3ccc(Cl)cc3)[C@H](c3ccccc3)C2)c1` (relative stereo) [Example 16, 4-chloro-N-{trans-1-[(1-methyl-1H-imidazol-4-yl)sulfonyl]-4-phenylpyrrolidin-3-yl}benzamide] belongs ≤ 1 µM; to `Cn1cnc(S(=O)(=O)N2C[C@@H](C(=O)Nc3cccc(Cl)c3)[C@H](c3ccc(F)cc3)C2)c1` (relative stereo) [Example 304, trans-N-(3-chlorophenyl)-4-(4-fluorophenyl)-1-[(1-methyl-1H-imidazol-4-yl)sulfonyl]pyrrolidine-3-carboxamide], ≤ 1 µM; to `CCCCCC(=O)N[C@H]1CN(S(=O)(=O)c2cn(C)cn2)C[C@@H]1c1ccccc1` [Example 550, N-{(3R,4S)-1-[(1-methyl-1H-imidazol-4-yl)sulfonyl]-4-phenylpyrrolidin-3-yl}hexanamide], ≤ 10 µM.
On the same count and under the same terms, to `Cn1cnc(S(=O)(=O)N2C[C@H](Nc3cc(OCC(F)(F)F)c(Cl)cn3)[C@@H](c3ccc(F)cc3)C2)c1` [Example 806, 5-chloro-N-{(3R,4S)-4-(4-fluorophenyl)-1-[(1-methyl-1H-imidazol-4-yl)sulfonyl]pyrrolidin-3-yl}-4-(2,2,2-trifluoroethoxy)pyridin-2-amine] belongs ≤ 0.01 µM; to `Cn1cnc(S(=O)(=O)N2C[C@H](NCc3ccnc(Cl)c3F)[C@@H](c3ccccc3)C2)c1` [Example 567, (3R,4S)-N-[(2-chloro-3-fluoropyridin-4-yl)methyl]-1-[(1-methyl-1H-imidazol-4-yl)sulfonyl]-4-phenylpyrrolidin-3-amine], ≤ 1 µM; to `CC(C)(C)OC(=O)N[C@@H]1CN(S(=O)(=O)c2ccccc2C#N)C[C@H]1c1ccc(F)cc1` (relative stereo) [Example 524, tert-butyl [trans-1-[(2-cyanophenyl)sulfonyl]-4-(4-fluorophenyl)pyrrolidin-3-yl]carbamate], ≤ 10 µM.
On the same count and under the same terms, in the case of `O=S(=O)(c1ccc2c(c1)OCCO2)N1CC(Nc2ccc(F)c(F)c2)C(c2ccccc2)C1` (centres unmarked) [Example 496, N-(3,4-difluorophenyl)-1-(2,3-dihydro-1,4-benzodioxin-6-ylsulfonyl)-4-phenylpyrrolidin-3-amine] it was ≥ 10 µM; in that of `Cn1cnc(S(=O)(=O)N2C[C@@H](NC(=O)c3cccc(C(F)(F)F)c3Cl)[C@H](c3ccccc3)C2)c1Cl` (relative stereo) [Example 48, 2-chloro-N-{trans-1-[(5-chloro-1-methyl-1H-imidazol-4-yl)sulfonyl]-4-phenylpyrrolidin-3-yl}-3-(trifluoromethyl)benzamide], ≤ 10 µM; in that of `Cn1cnc(S(=O)(=O)N2C[C@@H](Nc3cccc(C(C)(C)C)c3)[C@H](c3ccccc3)C2)c1` (relative stereo) [Example 221, trans-N-(3-tert-butylphenyl)-1-[(1-methyl-1H-imidazol-4-yl)sulfonyl] -4-phenylpyrrolidin-3-amine], ≤ 1 µM.
As for `Cc1c(S(=O)(=O)N2C[C@@H](NC(=O)c3cccc(C(F)(F)F)c3Cl)[C@H](c3ccccc3)C2)cnn1C` (relative stereo) [Example 41, 2-chloro-N-{trans-1-[(1,5-dimethyl-1H-pyrazol-4-yl)sulfonyl]-4-phenylpyrrolidin-3-yl}-3-(trifluoromethyl)benzamide], the Ki was ≤ 10 µM.
Same read-out and setting: to `O=C(N[C@@H]1CN(S(=O)(=O)CC2CC2)C[C@H]1c1ccccc1)c1cc(Cl)cc(Cl)c1` (relative stereo) [Example 129, 3,5-dichloro-N-{trans-1-[(cyclopropylmethyl)sulfonyl]-4-phenylpyrrolidin-3-yl}benzamide] belongs > 10 µM.

Still in this experiment, the particulars now being: radioligand binding, recombinant CHO cell membranes expressing human GlyT1c.
Regarding `Cn1cnc(S(=O)(=O)N2C[C@H](Nc3cc(C(F)(F)F)c(F)cn3)[C@@H](c3ccc(F)cc3)C2)c1` [Example 865, 5-fluoro-N-{(3R,4S)-4-(4-fluorophenyl)-1-[(1-methyl-1H-imidazol-4-yl)sulfonyl]pyrrolidin-3-yl}-4-(trifluoromethyl)pyridin-2-amine], the Ki was ≤ 0.01 µM.
Same read-out and setting: in the case of `Cn1cnc(S(=O)(=O)N2C[C@@H](Nc3ccc(F)c(Cl)c3)[C@H](C3CCCO3)C2)c1` (relative stereo) [Example 824, Trans-N-(3-chloro-4-fluorophenyl)-1-[(1-methyl-1H-imidazol-4-yl)sulfonyl]-4-(tetrahydrofuran-2-yl)pyrrolidin-3-amine] it was ≤ 1 µM.
